Entries after “also recorded” stand apart in the source; their conditions may differ.

Assay [1] relates to SMN. Briefly: SMN immunofluorescence quantification (cytoplasm, nucleus, GEMs) in fibroblasts from SMA patients. The class given is cell-based, human. The following applies: for levels of cytoplasmic and nuclear SMN (in words) / fold increase in nuclear SMN / fold increase in cytoplasmic SMN: SMA patient fibroblasts; for levels of cytoplasmic and nuclear SMN (in words): substance alone. The protocol:
Specifically, fibroblasts from patients suffering from SMA were treated with Ionomycin (a channel modulator), Ouabain (a cardiac glycoside and channel modulator), PDGF, SAHA (an HDAC inhibitor), Lactacystin (a proteasome inhibitor) or WIN 55,212-2 (a cannabinoid receptor […] and GPCR ligand) for 72 hours. The cells were fixed with methanol/acetone and stained with Pharmingen BD antibodies, followed by 488 AlexaFluor staining. Images were obtained with 60× lens on Zeiss LSM510 META on an inverted confocal microscope.
For example, fibroblasts from patients suffering from SMA were treated with Ouabain, Digoxin or Lanatoside at a concentration of 0, 2.5 nM, 5 nM, 10 nM, 20 nM, 40 nM, 80 nM, […] for 72 hours. The cells were fixed with methanol/acetone and stained with Pharmingen BD antibodies, followed by 488 AlexaFluor staining. Images were obtained with 60× lens on Zeiss LSM510 META on an inverted confocal microscope.
An assay was established for high-content evaluation of SMN protein level in different cellular compartments after treatment with small molecules. SMN protein was visualized by immunofluorescent staining and multiple fields from each plate well were scanned by an automated confocal Opera microscope. […] For each well, the algorithm generated quantitative parameters representing number of cells, as well as SMN fluorescent intensity per cell in cytoplasm, nucleus, number and intensity of GEMs (FIG. 15). […] During the assay transfer to the robotic platform fixation with the ice cold methanol was technically limited, therefore to preserve the maximum possible window we chose to perform the screen on parental fibroblast with PFA fixation.
For fibroblast assays, human fibroblasts lines GM09677 (derived from patient with SMA type 1 disease) and GM03814 (derived from unaffected parental SMA carriers) were used (Coriell Cell Repositories). […] For secondary assays cells from GM09677 line were used.
Fibroblasts were grown in MEM media (Invitrogen) supplemented with 5% Fetal Bovine Serum (FBS, Invitrogen), 2 mM glutamine and 1% penicillin-streptomycin (100 U/ml) in a presence of 5% CO2 at 37° C. For drug treatments, cells were plated and treated 24 h later with 10 μM MG132 (Biomol International), […] Calpeptin (Biomol International), 10 mM ammonium chloride, 1 μM myristoylated PKI, or vehicle for the designated times.
Compounds were stored at appropriate temperature and dissolved accordingly to the manufacturers (Tocris, Enzo, EMD and Sigma-Aldrich) in DMSO (Sigma-Aldrich), unless stated otherwise (Monensin Na in EtOH, DMPQ in water). Growth factors and PDGF neutralizing antibodies (R&D Systems) were reconstituted with buffers recommended by the supplier. For generation of the dose curves, 1×10^3 fibroblasts were plated on to 96-well Greiner Senso plates (VWR) and treated with compounds on the second day then fixed and stained at the indicated time points. For GSK inhibitors and performing p-GSK3b(Ser9) detection, two days after plating growth media containing 5% FBS was replaced to the media with FBS reduced down to 0.5%, to starve cells for 72 hours. Addition of the GSK inhibitors was done in 5% FBS enriched media.

The test system of assay [2] is SMN. Briefly: High-content fibroblast screen for compounds that modulate SMN level.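 Note: Anti-SMN immunostaining with confocal imaging of nuclear and cytoplasmic SMN and gem counts, tested at 0.1, 1 and 10 uM, fold change relative to negative control wells on each plate.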 The conditions noted are these: human fibroblasts, 2-3 days with compound.

With `CNc1ccc2oc(C[C@H]3O[C@@]4(CC[C@H]3C)O[C@H]([C@H](C)C(=O)c3ccc[nH]3)[C@H](C)C[C@H]4C)nc2c1C(=O)O` [Calcimycin], the “levels of cytoplasmic and nuclear SMN (in words)” value (“levels” below) in assay [1] is given as “elevation of SMN levels; also recorded: active in elevating the levels of SMN; also recorded: generally active”; in assay [1] (listed as A23187), “active”. Moreover, the “SMN level in fibroblast screen (increase or decrease)” value (shortened to “SMN level … (increase or decrease)”) in assay [2] is recorded as “increase SMN”.
Take `C/C=C(/C)C(=O)O[C@H]1C(C)=C2[C@H]([C@@H]1OC(=O)CCCCCCC)[C@@](C)(OC(C)=O)C[C@H](OC(=O)CCC)[C@@]1(O)[C@H]2OC(=O)[C@@]1(C)O` [Thapsigargin]: the “levels” value in assay [1] was “active in elevating the levels of SMN; also recorded: generally active; also recorded: caused SMN upregulation”; in assay [1] (listed as thapsigagin), “elevation of SMN levels”. For the same compound, the “SMN level … (increase or decrease)” value in assay [2] is on record as “increase SMN”.
Regarding `CC[C@@]1([C@@H]2O[C@@H]([C@H]3O[C@@](O)(CO)[C@H](C)C[C@@H]3C)C[C@@H]2C)CC[C@H]([C@]2(C)CC[C@]3(C[C@H](O)[C@@H](C)[C@@H]([C@@H](C)[C@@H](OC)[C@H](C)C(=O)O)O3)O2)O1` [Monensin Na], the “fold increase in nuclear SMN” value in assay [1] worked out at 2 fold. The “SMN level … (increase or decrease)” value in assay [2] is reported as “increase SMN”.
As for `N#CCCc1ccc2c(c1)-c1[nH]c3ccc([N+](=O)[O-])cc3c1CC(=O)N2`, the “levels” value in assay [1] is given as “able to elevate SMN in patient fibroblasts”. Also, in assay [2], the “SMN level … (increase or decrease)” value is given as “SMN is increase”.
For `C[C@@H]1O[C@@H](O[C@H]2C[C@@H](O)[C@]3(CO)[C@H]4[C@H](O)C[C@]5(C)[C@@H](C6=CC(=O)OC6)CC[C@]5(O)[C@@H]4CC[C@]3(O)C2)[C@H](O)[C@H](O)[C@H]1O` [Ouabain], the “levels” value in assay [1] is “increase in SMN levels”. Also, the results for the “SMN level … (increase or decrease)” value in assay [2] and in assay [2] (listed as ouabain) were “increase SMN” and “consistently emerged as hits”, respectively.
Take `Cc1c(C(=O)c2cccc3ccccc23)c2cccc3c2n1[C@H](CN1CCOCC1)CO3` [WIN 55, 212-2]: in assay [1], the “fold increase in cytoplasmic SMN” value is 1.5 fold; the “fold increase in nuclear SMN” value was 2 fold; the “levels” value is on record as “increase in SMN levels”. Also, the “SMN level … (increase or decrease)” value in assay [2] is reported as “increase SMN”.
As for `O=C(CCCCCCC(=O)Nc1ccccc1)NO` [SAHA, Suberoylanilide Hydroxamic Acid], the “levels” value in assay [1] is recorded as “increase in SMN levels”. Moreover, the “effect on GEMs (number / intensity, in words)” value in assay [1] (fibroblasts) is “increased GEM counts at the lower concentrations”. For the same compound, the “nuclear SMN at the higher dosage (in words)” value in assay [1] (fibroblasts, higher dosage) is “increased nuclear SMN predominantly”. Moreover, the “SMN level … (increase or decrease)” value in assay [2] is recorded as “increase SMN”.
Take `O=C1Nc2ccc3ncsc3c2C1=Cc1cnc[nH]1` [PKR inhibitor, 6,8-Dihydro-8-(1H-imidazol-5-ylmethylene)-7H-pyrrolo[2,3-g]benzothiazol-7-one]: in assay [1], the “fold increase in cytoplasmic SMN” value is 2 fold and the “fold increase in nuclear SMN” value was determined as 1.5 fold. Besides, the “SMN level … (increase or decrease)” value in assay [2] is “SMN is increase”.
In the case of `C[C@H](CCC(=O)O)C[C@H](C)C[C@H](C)C(=O)/C=C(\O)[C@H](C)C[C@H](C)C/C=C/[C@@H](C)[C@@H](O)[C@@H](C)[C@@H](O)C[C@@H]1CC[C@@](C)([C@H]2CC[C@@](C)([C@@H](C)O)O2)O1` [Ionomycin], the “levels” value in assay [1] was “increase in SMN levels; also recorded: active in elevating the levels of SMN; also recorded: able to increase SMN level”; in assay [1] (listed as ionomycin), “elevation of SMN levels; also recorded: active”. Further, the “SMN level … (increase or decrease)” value in assay [2] is reported as “increase SMN”.
On to `CC(=O)N[C@@H](CSC(=O)[C@]1([C@@H](O)C(C)C)NC(=O)[C@H](C)[C@@H]1O)C(=O)O` [Lactacystin], for which the “levels” value in assay [1] is on record as “increase in SMN levels”. For the same compound, the “effect on GEMs (number / intensity, in words)” value in assay [1] (fibroblasts) is listed as “mostly affected GEMs”. Besides, in assay [2], the “SMN level … (increase or decrease)” value was “increase SMN”.

The record behind these values is US20120010178A1, “METHODS AND COMPOUNDS FOR TREATMENT OF NEURODEGENERATIVE DISORDERS” (PRESIDENT AND FELLOWS OF HARVARD COLLEGE, priority 2008, published 2012).
